From patent US5632983A, “Method for treating secondary immunodeficiency” (University of South Florida, priority 1994, dated 1997)
No end group written: not given here.

What was measured:
[1] = tested on: thymocytes; assay: Proliferative response (3H-thymidine) of thymocytes in vitro after in vivo treatment, hydrocortisone induced thymic involution in aged mice
Method: (§1) The model of hydrocortisone induced thymic involution in aged mice was used unless otherwise indicated (Hadden et al., 1992b).
(§2) Female BALB/c (Life Science, St. Petersburg, Fla.) aged retired breeder mice (8-9 months) whose thymuses had begun to involute were employed in in vivo tests. Mice were weight matched and randomly pooled in groups of five. Animals were fed standard laboratory diets with drinking water ad lib. All mice, with exception of a control group, were treated intraperitoneally (i.p.) with hydrocortisone (5 mg/mouse in 0.1 ml 0.9% sodium chloride) for two consecutive days to induce a chemical thymectomy and reduction of spleen weight.
(§3) Each treatment group had five (5) animals and each experiment was repeated 2-5 times. Treatment was initiated intraperitoneally (i.p.), on Day 3 and continued once per day for a total of five (5) days. Treatment groups were injected with one of the following in vivo treatments as indicated in the text:
(§4) On day 8, the mice were weighed, sacrificed by cervical dislocation, and their spleens and thymuses removed and weighed. The organs were minced, the residual erythrocytes were lysed using ammonium chloride (Mishell and Shiigi, "Selected Methods in Cellular Immunology", 1981), and the cells counted.
(§5) The proliferative response of the cells to various substances was then determined. A sample of cells was prepared for cell culture at 37° C., 5% CO2 in RPMI 1640 medium with 5% fetal bovine serum, penicillin (100 U/ml), streptomycin (100 μg/ml) and 2-mercaptoethanol (2×10^-5 M). The cells were plated in 0.2 ml microwell plates in quadruplicate at a concentration of 1.5×10^6 /ml and incubated for 72 hours with one of the following as indicated in the text:
(§6) To measure DNA synthesis, the culture was terminated with an 18 hours pulse of tritiated thymidine (^3 H-Thymidine; NEN, Boston, Mass.; specific activity 6.7 Ci/mM), harvested with a multiple automatic sample harvester and processed for liquid scintillation counting. The results were expressed as arithmetic mean of cpm from four samples. In order to simplify the representation of data obtained with different animals, the results were pooled and calculated together and in some cases expressed as a ratio to control±SEM.
(§7) In a series of experiments, mice with involuted thymuses were treated in vivo with NCM, Thymosin α1, Thymosin fraction V, combinations of these factors, and saline or media controls. The spleens and thymuses were removed, the cells were tested for cell proliferation responses to stimulation in vitro with the interleukins (IL1, IL2, NCM) or with mitogens (PHA; ConA).

[2] = Spleen weight in hydrocortisone-treated aged mice; type: in vivo; conditions: NCM 50 U of IL-2 per mouse/day; Thymosin α1 5 or 20 microgram/mouse/day (pooled); i.p. 5 days, day 8
Method: as §2, §3, §4
(§8) Animals, hydrocortisone treatment, and experimental injections were as described in the general methods. The NCM was injected at 50 U of IL-2 per mouse/day. The Thymosin α1 (T alpha-1 or Tα1) was injected at 5 or 20 microgram/mouse/day.

[3] = Thymus weight in hydrocortisone-treated aged mice; type: in vivo; conditions: NCM 50 U of IL-2 per mouse/day; Thymosin α1 5 or 20 microgram/mouse/day (pooled); i.p. 5 days, day 8
Method: as §2, §3, §4, §8

[4] = tested on: splenocytes; assay: Proliferative response (3H-thymidine) of splenocytes in vitro after in vivo treatment, hydrocortisone induced thymic involution in aged mice
Method: as §1, §2, §3, §4, §5, §6, §7

Thymosin α1 (SDAAVDTSSEITTKDLKEKKEVVEEAEN; not fully specified; ends and bridges not checked; UniProt P01252 2-29, looked up) [28 amino acid peptide initially extracted from bovine thymus and later synthesized]
dose of optimal effects on thymocyte responses to interleukins and mitogen ([1]; FIG. 1, dose response 0.2 to 20 μg/animal/day in vivo): 5 μg/mouse
thymocyte responses in vitro to media, rIL-1, rIL-2 and NCM ([1]; FIG. 3, in vivo i.p. once per day for 5 days, Thymosin α1 5 μg/mouse, NCM 50 units IL-2 equivalence): increased many of the responses
thymocyte responses to mitogens PHA and ConA ([1]; FIG. 5, in vivo treatments as in FIG. 3): significantly augmented both responses
thymocyte responses to rIL-1, IL-2, NCM or ConA ([1]; FIGS. 7 and 9, ratio to saline treated control, Thymosin α1 5 μg/mouse/day, TF5 100 μg/mouse/day, NCM 50 units): augmented all of the responses
SPLEEN WEIGHT (mg) Mean ± S.E.M. [2]: 127.66 ± 5.78 mg
THYMUS WEIGHT (mg) Mean ± S.E.M. [3]: 25.75 ± 4.45 mg
dose of optimal effects on splenocyte responses to interleukins and mitogen ([4]; FIG. 2, dose response 0.2 to 20 μg/animal/day in vivo): 5 μg/mouse
splenocyte responses in vitro to media, rIL-1, rIL-2 and NCM ([4]; FIG. 4, in vivo i.p. once per day for 5 days, Thymosin α1 5 μg/mouse, NCM 50 units IL-2 equivalence): increased many of the responses
splenocyte responses to mitogens PHA and ConA ([4]; FIG. 6, in vivo treatments as in FIG. 3): significantly augmented both responses
splenocyte responses to rIL-1, IL-2, NCM or ConA ([4]; FIGS. 8 and 10, ratio to saline treated control, Thymosin α1 5 μg/mouse, TF5 100 μg/mouse, NCM 50 units): augmented all of the responses
